Reference: patent publication US11014947B2, “Lipophenol compounds and uses thereof” (INSTITUT NATIONAL DE LA SANTE ET DE LA RECHERCHE MEDICALE …, priority 2014, dated 2021)
Like-named read-outs stand apart in the source and are kept apart here.

Assays:
ARPE-19 cell lines [1] = conditions: for % Survival: untreated cells = 100; for cell survival: text summary of Table 1, AtR 25 μM
Method: The biological assay is based on the measure of cell survival after treatment with the lipophenol prior incubation (pre-incubation process) with the carbonyl stressor AtR. The toxic AtR concentration (25 μM) was determined to reduce cell survival by 60 to 70%. Results are expressed as % of cell survival in treated (lipophenol/all-trans-retinal) vs untreated cells (taken as 100%).
ARPE-19 cells were settled in 96-well plates (3×10^4 cells/well) and cultured 24 h to reach confluence before drug treatment. Cell cultures received a serum-free medium containing drugs at different concentrations (10-40 μM) for one hour and trans-retinal (25 μM) was added for 4 more hours before rinsing with medium. The viability of cells in triplicate samples was determined 16-20 h after with a MTT colorimetric assay. After 2 h incubation with 0.5 mg/ml MU, insoluble purple formazan produced was dissolved in DMSO. The absorbance at 570 nm and 655 nm of individual wells was measured by a microplate reader (BioRad 550).

ARPE-19 = experiment: atRAL-induced cell death, Annexin V-FITC / propidium iodide flow cytometry; format: cell-based; conditions: 4 h
Method: Further investigations were made to define the atRAL-induced cell death (apoptotic versus necrotic) and validate the protective effect of PG-OiP-DHA (FIG. 6). Cells were incubated for 4 h with atRAL 25 μM, PG-OiP-DHA (compound 13b) 40 μM, or both. Treated ARPE-19 were labeled with Annexin V-FITC (A) and propidium iodide (PI) to separate by flow cytometry healthy cells (no labeling), early apoptosis (A+ and PI−) and necrotic cells (A+ and PI+). In CTL or PG-OiP-DHA-treated cells only 6 to 10% died. After 4 h atRAL, cell death reached 46%, mainly at necrotic stage (41%).

[2] = test system: neural retina cell cultures; experiment: Cytoprotection in neural retina cell cultures exposed to atRal (MTT); format: cell-based; conditions: 13b 10 to 100 μM, atRal 50-75-100 μM added 1 h after, 4 h co-incubation
Method: The effect of compound 13b on cell viability was examined after co-incubation with atRal. Cell cultures were incubated with 13b (10 to 100 μM) and atRal (50-75-100 μM) was added 1 h after for a 4 h co-incubation. Cells were then cultured in serum-free medium for 16-20 h and their viability was determined with a MTT assay.

[3] = test system: mitochondrial respiratory chain (MRC) complex; experiment: Mitochondrial respiratory chain complex enzymatic activities and protein expression; format: cell-based; conditions: atRAL treatment with PG-OiP-DHA (FIG. 5, FIG. 14)
From the text: In a cellular context, PG-OiP-DHA (compound 13b) has been shown able to partially restore mitochondrial oxidative respiration impaired by the atRAL (example 10). Because this repair might be produced by targeting the whole oxidative chain or each individual respiratory complex, this potency was further investigated by measuring the intrinsic activity of each mitochondrial respiratory chain (MRC) complex (enzymology) and their level of protein expression (FIG. 5). […] This was supported by the loss of MRC protein expression.
Several experiments were made to validate the efficacy of PG-OiP-DHA in the protection of the mitochondrial activity (FIG. 14).

complexes CI and CII = experiment: Mitochondrial respiration in ARPE-19 cell line (oxygraph); format: cell-based
From the text: Oxidative stress originates from physiological reactions taking place practically inside each cell of an organism. The production of reactive oxygen species (ROS) accompanies, for example, oxidative phosphorylation-derived ATP-based energy metabolism which takes place in the mitochondria of a cell. Under physiological conditions, ROS are neutralized by effective enzymatic and non-enzymatic defense mechanisms, contributing to the maintenance of a proper balance. However, an excess of ROS, resulting from their overproduction in pathophysiological conditions, will disturb the equilibrium and lead eventually to deleterious consequences for the cell. Maeda et al. (JBC 284(22), 2009) have reported that atRal impairs mitochondrial oxidative phosphorylation. Therefore, mitochondrial respiration was measured in ARPE-19 cell line using oxygraph after exposure to 25 μM atRal and/or 40 μM 13b (FIG. 3).

ARPE-19 cell lines [4] = experiment: ARPE-19 cell survival, co-treatment with atRAL 25 μM; format: cell-based
Method: Co-treatment were performed with lipophenols onto ARPE-19 (FIG. 4). Incubation for 4 h with atRAL decreased cell viability to 35%. The protection of ARPE-19 by phloroglucinol (PG) was dose-dependent but weak (less than 10%). In contrast, most of the PG derivatives were more protective, in particular the presence of two or three DHA linked to PG provided a strong protection (up to 73% survival), as well as the mono-alkylation (methyl and isopropyl) were sufficient to protect 60% of cells. PG-OiP-DHA was confirmed to be among the most efficient (74%).

RPE primary cells [5] = experiment: Primary RPE cultures, pre-treatment 24 h, H2O2 450 μM 2 h, cell viability assay; format: cell-based; conditions: H2O2 450 μM 2 h (FIG. 7)
Method: a. Pre-treatment 24 h, H2O2 450 μM 2 h; cell viability assay

RPE primary cells [6] = experiment: Primary RPE cultures, co-incubation 4 h with atRAL 25 μM, cell viability assay; format: cell-based; conditions: co-incubation 4 h with atRAL 25 μM (FIG. 9)
Method: c. Co-incubation 4 h with atRAL 25 μM; cell viability assay
To compare the anti-carbonyl efficacies of phloroglucinol (22% gain of survival) and PG-OiP-DHA (69%) in a condition to probe their scavenging properties in primary RPE cells (FIG. 9).

RPE primary cells [7] = experiment: Primary RPE cultures, pre-treatment 24 h, atRAL 25 μM 4 h, cell viability assay; format: cell-based; conditions: atRAL 25 μM 4 h (FIG. 8)
Method: b. Pre-treatment 24 h, atRAL 25 μM 4 h; cell viability assay

[8] = compound 10 μM 1 h, then AtR 25 μM 4 h, MTT after 16-20 h
[9] = compound 40 μM 1 h, then AtR 25 μM 4 h, MTT after 16-20 h
[10] = co-incubation atRAL 25 μM + PG-OiP-DHA 40 μM

## CC/C=C\C/C=C\C/C=C\C/C=C\C/C=C\C/C=C\CCC(=O)Oc1cc(O)cc(OC)c1 [Compound 13a, (4,7,10,13,16,19 Z)-3-hydroxy-5-methoxyphenyl docosa-4,7,10,13,16, 19-hexaenoate]
ARPE-19 cell lines [1]; [8]
  % Survival: 32.6 ± 3.7%
ARPE-19 cell lines [1]; [9]
  % Survival: 44.9 ± 1.9%
ARPE-19 cell lines [1]
  cell survival: as active as 8

## CC/C=C\C/C=C\C/C=C\C/C=C\C/C=C\C/C=C\CCC(=O)Oc1cc(O)cc(OC(C)C)c1 [Compound 13b, (4,7,10,13,16,19 Z)-3-hydroxy-5-isopropoxyphenyl docosa-4,7,10,13,16,19-hexaenoate]
ARPE-19; [10]
  necrotic cells: 16%
  total cell death: 18%
[2]
  reversal of atRal cytotoxicity: robustly reversed
ARPE-19 cell lines [1]; [8]
  % Survival: 43.2 ± 7.5%
ARPE-19 cell lines [1]; [9]
  % Survival: 66.8 ± 8.6%
[3]
  preservation of complex II and IV enzymatic activities affected by atRAL: significantly preserved
Complexes CI and CII; 40 μM 13b with 25 μM atRal
  reversal of atRal inhibition of complexes CI and CII: partially reverse this inhibition
Complexes CI and CII; 40 μM 13b, no atRal
  inhibition of the activity of each complex by the compound alone: no significant inhibition
ARPE-19 cell lines [4]; co-treatment with atRAL 25 μM 4 h, doses 5-80 μM (FIG. 4)
  survival: 74%
RPE primary cells [5]
  gain of survival (anti-oxidant efficacy): 20%
RPE primary cells [6]
  gain of survival (anti-carbonyl efficacy, scavenging): 69%
RPE primary cells [7]
  gain of survival (anti-carbonyl efficacy): 42%

## CC1=C(/C=C/C(C)=C/C=C/C(C)=C/C=O)C(C)(C)CCC1 [AtR, all-trans-retinal, reference compound]
ARPE-19; atRAL 25 μM alone
  cell death: 46%
  necrotic stage cells: 41%
ARPE-19 cell lines [1]; AtR 25 μM alone
  % Survival: 29.1 ± 5.4%
Complexes CI and CII; 25 μM atRal alone
  inhibition of the activity of complexes CI and CII: strongly inhibits
ARPE-19 cell lines [4]; atRAL 25 μM alone, 4 h
  cell viability: 35%

## CC/C=C\C/C=C\C/C=C\C/C=C\C/C=C\C/C=C\CCC(=O)O [DHA, docosahexaenoic acid, reference compound]
ARPE-19 cell lines [1]; [8]
  % Survival: 23.5 ± 2.7%
ARPE-19 cell lines [1]; [9]
  % Survival: 7.3 ± 5.0%

## Oc1cc(O)cc(O)c1 [Phloroglucinol, phloroglucinol, reference compound]
ARPE-19 cell lines [1]; 40 μM, AtR 25 μM
  increase of RPE cell survival: 10%
ARPE-19 cell lines [1]; [8]
  % Survival: 35.5 ± 3.3%
ARPE-19 cell lines [1]; [9]
  % Survival: 41.6 ± 9.2%
ARPE-19 cell lines [4]; co-treatment with atRAL 25 μM, doses 5-80 μM
  protection of ARPE-19: less than 10%
RPE primary cells [5]
  gain of survival (anti-oxidant efficacy): 10%
RPE primary cells [6]
  gain of survival (anti-carbonyl efficacy, scavenging): 22%
RPE primary cells [7]
  gain of survival (anti-carbonyl efficacy): 18%

## CC/C=C\C/C=C\C/C=C\C/C=C\C/C=C\C/C=C\CCC(=O)Oc1ccc(/C=C/c2cc(O)cc(O)c2)cc1 [Compound 20, (4,7,10,13,16,19 Z)-4-((E)-3,5-dihydroxyphenylstyryl)phenyl docosa-4,7,10,13,16,19-hexaenoate]
ARPE-19 cell lines [4]; co-treatment with atRAL 25 μM 4 h (FIG. 4)
  protective effect: very potent

## CC/C=C\C/C=C\C/C=C\C/C=C\C/C=C\C/C=C\CCC(=O)Oc1cc(OC(=O)CC/C=C\C/C=C\C/C=C\C/C=C\C/C=C\C/C=C\CC)cc(OC(=O)CC/C=C\C/C=C\C/C=C\C/C=C\C/C=C\C/C=C\CC)c1 [Compound 8, (4,4′,4″,7,7′,7″,10,10′,10″,13,13′,13″,16,16′,16″,19,19′,19″Z)-benzene-1,3,5-triyl tridocosa-4,7,10,13,16,19-hexaenoate]
ARPE-19 cell lines [1]; [8]
  % Survival: 33.3 ± 4.1%
ARPE-19 cell lines [1]; [9]
  % Survival: 47.7 ± 3.2%
ARPE-19 cell lines [1]
  cell survival: 50%

## CC(C)Oc1cc(O)cc(O)c1 [Compound 9b, 5-isopropoxybenzene-1,3-diol, reference compound]
ARPE-19 cell lines [1]; [8]
  % Survival: 30.6 ± 1.2%
ARPE-19 cell lines [1]; [9]
  % Survival: 32.7 ± 1.8%
